# Patent US6339045B1, “N-(unsubstituted or substituted)-4-substituted-6-(unsubstituted or substituted)phenoxy-2-pyridinecarboxamides or thiocarboxamides, processes for producing the same, and herbicides” (Kureha Kagaku Kogyo Kabushiki Kaisha, priority 1995, dated 2002)
# Legend:
# Test in all cases: Herbicidal effect by foliage and soil treatment
# Assay type in all cases: in vivo
# Conditions in all cases: 10 g ai/10a, evaluated after 14 days
# [1] = test system: black nightshade (Solanum nigrum)
# In short: (§1)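 Seedlings grown in granular soil in a 19–25 °C greenhouse to the cotyledon–two-leaf stage were sprayed over foliage and soil with compound in Tween 20/water at a set application rate. Growth was scored on a rating scale against untreated plants after 14 days.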
# [2] = test system: field bindweed (Convolvulus arvensis)
# In short: as §1
# [3] = test system: common chickweed (Stellaria media)
# In short: as §1
# [4] = test system: cleavers (Galium aparine)
# In short: as §1
# [5] = test system: sicklepod (Cassia obtusifolia)
# In short: as §1
# [6] = test system: wild chamomile (Matricaria chamomilla)
# In short: as §1
# [7] = test system: velvetleaf (Abutilon theophrasti)
# In short: as §1
# [8] = test system: kediock (Sinapis arvensis)
# In short: as §1
# [9] = test system: redroot pigweed (Amaranthus retroflexus)
# In short: as §1
# [10] = test system: common blackjack (Bidens pilosa)
# In short: as §1
# [11] = test system: ivyleafspeedwell (Veronica hederaefolia)
# In short: as §1
SMILES,"herbicidal activity rating, SN (Solanum nigrum) [1]","herbicidal activity rating, CA (Convolvulus arvensis) [2]","herbicidal activity rating, SM (Stellaria media) [3]","herbicidal activity rating, GA (Galium aparine) [4]","herbicidal activity rating, CO (Cassia obtusifolia) [5]","herbicidal activity rating, MC (Matricaria chamomilla) [6]","herbicidal activity rating, AT (Abutilon theophrasti) [7]","herbicidal activity rating, SA (Sinapis arvensis) [8]","herbicidal activity rating, AR (Amaranthus retroflexus) [9]","herbicidal activity rating, BP (Bidens pilosa) [10]","herbicidal activity rating, VH (Veronica hederaefolia) [11]"
"COc1cc(Oc2cccc(C(F)(F)F)c2)nc(C(=O)NCC#N)c1 [Compound I-84, N-{(2-cyano)methyl}-4-methoxy-6-{3-(trifluoromethyl)phenoxy}-2-pyridine carboxamide]",5 (percentage of weeds killed was not less than 80%),4 (percentage of weeds killed was not less than 60% and less than 80%),4 (percentage of weeds killed was not less than 60% and less than 80%),5 (percentage of weeds killed was not less than 80%),5 (percentage of weeds killed was not less than 80%),2 (percentage of weeds killed was not less than 20% and less than 40%),5 (percentage of weeds killed was not less than 80%),5 (percentage of weeds killed was not less than 80%),5 (percentage of weeds killed was not less than 80%),5 (percentage of weeds killed was not less than 80%),5 (percentage of weeds killed was not less than 80%)
COc1cc(Oc2cccc(C(F)(F)F)c2)nc(C(=O)NCC2CC2)c1 [Compound I-85],5 (percentage of weeds killed was not less than 80%),4 (percentage of weeds killed was not less than 60% and less than 80%),5 (percentage of weeds killed was not less than 80%),5 (percentage of weeds killed was not less than 80%),5 (percentage of weeds killed was not less than 80%),5 (percentage of weeds killed was not less than 80%),5 (percentage of weeds killed was not less than 80%),5 (percentage of weeds killed was not less than 80%),5 (percentage of weeds killed was not less than 80%),4 (percentage of weeds killed was not less than 60% and less than 80%),5 (percentage of weeds killed was not less than 80%)
"CCC(=O)CNC(=O)c1cc(OC)cc(Oc2cccc(C(F)(F)F)c2)n1 [Compound I-86, N-(2-oxobutyl)-4-methoxy-6-{3-(trifluoromethyl)phenoxy}-2-pyridine carboxamide]",5 (percentage of weeds killed was not less than 80%),3 (percentage of weeds killed was not less than 40% and less than 60%),5 (percentage of weeds killed was not less than 80%),5 (percentage of weeds killed was not less than 80%),4 (percentage of weeds killed was not less than 60% and less than 80%),4 (percentage of weeds killed was not less than 60% and less than 80%),5 (percentage of weeds killed was not less than 80%),5 (percentage of weeds killed was not less than 80%),5 (percentage of weeds killed was not less than 80%),4 (percentage of weeds killed was not less than 60% and less than 80%),5 (percentage of weeds killed was not less than 80%)
"CCOCNC(=O)c1cc(OC)cc(Oc2cccc(C(F)(F)F)c2)n1 [Compound I-87, N-(ethoxymethyl)-4-methoxy-6-{3-(trifluoromethyl)phenoxy}-2-pyridine carboxamide]",5 (percentage of weeds killed was not less than 80%),5 (percentage of weeds killed was not less than 80%),5 (percentage of weeds killed was not less than 80%),5 (percentage of weeds killed was not less than 80%),5 (percentage of weeds killed was not less than 80%),5 (percentage of weeds killed was not less than 80%),5 (percentage of weeds killed was not less than 80%),5 (percentage of weeds killed was not less than 80%),5 (percentage of weeds killed was not less than 80%),5 (percentage of weeds killed was not less than 80%),5 (percentage of weeds killed was not less than 80%)
"COc1cc(Oc2cccc(C(F)(F)F)c2)nc(C(=O)NC(OC)C(F)(F)F)c1 (stereo not shown) [Compound I-88, N-(1-methoxy-2,2,2-trifluoroethyl)-4-methoxy-6-{3-(trifluoromethyl)phenoxy}-2-pyridine carboxamide]",5 (percentage of weeds killed was not less than 80%),5 (percentage of weeds killed was not less than 80%),5 (percentage of weeds killed was not less than 80%),5 (percentage of weeds killed was not less than 80%),5 (percentage of weeds killed was not less than 80%),2 (percentage of weeds killed was not less than 20% and less than 40%),5 (percentage of weeds killed was not less than 80%),5 (percentage of weeds killed was not less than 80%),5 (percentage of weeds killed was not less than 80%),3 (percentage of weeds killed was not less than 40% and less than 60%),5 (percentage of weeds killed was not less than 80%)
COc1cc(Oc2cccc(C(F)(F)F)c2)nc(C(=O)NCCO)c1 [Compound I-89],5 (percentage of weeds killed was not less than 80%),4 (percentage of weeds killed was not less than 60% and less than 80%),5 (percentage of weeds killed was not less than 80%),5 (percentage of weeds killed was not less than 80%),5 (percentage of weeds killed was not less than 80%),3 (percentage of weeds killed was not less than 40% and less than 60%),4 (percentage of weeds killed was not less than 60% and less than 80%),5 (percentage of weeds killed was not less than 80%),5 (percentage of weeds killed was not less than 80%),5 (percentage of weeds killed was not less than 80%),5 (percentage of weeds killed was not less than 80%)
COc1cc(Oc2cccc(C(F)(F)F)c2)nc(C(=O)NCCOCCF)c1 [Compound I-90],5 (percentage of weeds killed was not less than 80%),4 (percentage of weeds killed was not less than 60% and less than 80%),5 (percentage of weeds killed was not less than 80%),5 (percentage of weeds killed was not less than 80%),5 (percentage of weeds killed was not less than 80%),2 (percentage of weeds killed was not less than 20% and less than 40%),3 (percentage of weeds killed was not less than 40% and less than 60%),5 (percentage of weeds killed was not less than 80%),5 (percentage of weeds killed was not less than 80%),5 (percentage of weeds killed was not less than 80%),5 (percentage of weeds killed was not less than 80%)
"COc1cc(Oc2cccc(C(F)(F)F)c2)nc(C(=O)NCCSCCF)c1 [Compound I-92, N-{2-(2-fluoroethylmercapto)ethyl}-4-methoxy-6-{3-(trifluoromethyl)phenoxy}-2-pyridine carboxamide]",5 (percentage of weeds killed was not less than 80%),4 (percentage of weeds killed was not less than 60% and less than 80%),4 (percentage of weeds killed was not less than 60% and less than 80%),5 (percentage of weeds killed was not less than 80%),5 (percentage of weeds killed was not less than 80%),3 (percentage of weeds killed was not less than 40% and less than 60%),3 (percentage of weeds killed was not less than 40% and less than 60%),5 (percentage of weeds killed was not less than 80%),5 (percentage of weeds killed was not less than 80%),4 (percentage of weeds killed was not less than 60% and less than 80%),5 (percentage of weeds killed was not less than 80%)
